This note sets out measurements from US8431581B2, “Imidazopyrimidines and uses thereof” (priority 2008, dated 2013).

For experiment [1], the system named is HIV variant T125K F121Y integrase. The experiment is described as follows: Phenosense (PhenoScreen) assay, T125K F121Y variant. The settings on record: Human immunodeficiency virus 1, read-out: Phenosense assay T125K F121Y activity value. In kind it is cell-based. The text has this:
(§1) Monogram Bioscience' PhenoScreen assay allows the evaluation of integrase inhibitors for activity against a variety of HIV variants. The assay uses virus generated from 2 DNA constructs; one containing the HIV LTR, gag and pol regions, as well as a luciferase reporter gene in place of the viral envelope genes, and a second DNA construct containing the amphotrophic murine leukemia virus (A-MLV) envelope gene required to pseudotype virions and render them capable of entry into a target cell. Viruses generated using these constructs by transfection into a producer cell line such as 293T are capable of one-round of infection only. Successful integration events are directly proportional to the levels of luciferase expression 48-72 h after infection.
(§2) The viral variants chosen by Avexa Ltd. to screen their in-house integration inhibitors against consist of mutations within the viral integrase enzyme known to confer resistance to a number of known integration inhibitors published in the literature. In particular, the viral variants containing the Q148H/G140S double mutation in integrase, and the N155H/E92Q double mutation in integrase, represent two of the more common viruses identified to arise in patients that are failing treatment with Isentress (Raltegravir, MK-0518).
(§3) Both the Phenosense assay and the Enzyme assay give substantially the same activity values for any particular compound and enzyme pair. The activity of one compound in one assay can therefore be directly compared to the activity of a second compound in the other assay.

Experiment [2] has as its system HIV variant E92Q N155H integrase. Briefly: Phenosense (PhenoScreen) assay, E92Q N155H variant. The class given is cell-based. The settings on record: Human immunodeficiency virus 1, read-out: Phenosense assay E92Q N155H activity value.
Description: as §1, §2, §3

Experiment [3] has as its system HIV variant Y143R integrase. Briefly: Phenosense (PhenoScreen) assay, Y143R variant. The settings on record: Human immunodeficiency virus 1, read-out: Phenosense assay Y143R activity value. The class given is cell-based.
Description: as §1, §2, §3

The subject of experiment [4] is HIV WT integrase. Briefly: Phenosense (PhenoScreen) assay, wild type virus. In kind it is cell-based. The settings on record: Human immunodeficiency virus 1, read-out: Phenosense assay WT activity value.
Description: as §1, §2, §3

Experiment [5] has as its target T1, HIV integrase WT (Human immunodeficiency virus type 1 group M subtype B, UniProt P12497).
T1 construct: The integrase coding region was then subject to PCR and cloned into a bacterial expression vector; made in house
Briefly: Strand transfer assay (enzyme assay), wild type. The class given is biochemical, HIV-1.
Description: (§4) HIV integrase was mutated within a shuttle vector (pGEMNLHE) containing the majority of the HIV-1 gag and pol sequence using site directed mutagenesis to generate integrase sequences that have been published as conferring resistance to published integrase inhibitors. These include, but are not limited to, mutations such as Q148K, Q148H/G140S and N155H/E92Q. The integrase coding region was then subject to PCR and cloned into a bacterial expression vector. The specific introduction of desired mutation(s) was confirmed by sequence analysis. Proteins were expressed, purified and used in strand transfer assays.
(§5) A strand transfer assay procedure similar to that published (Ovenden et al. Phytochemistry. 2004 December; 65(24):3255-9.) is used. Briefly, 400 ng of the enzyme, wild type or drug resistant mutant, is mixed with the compound to be tested and incubated with 30 nM substrate DNA. The substrate DNA is designed to mimic HIV DNA termini that has undergone 3′ end processing, and consists of the annealed U5 LTR sequence oligonucleotides tagged with Digoxigenin (DIG; 5′-[…]-DIG-3′) or biotin (5′-Bio-[…]-3′) so that each substrate has either a DIG or Bio tag on opposite strands. Reactions are carried out for 1 hr at 37° C. Products generated as a result of strand transfer activity are bound to streptavidin plates and detected using anti-DIG-alkaline phosphatase conjugate and p-nitro phenyl phosphate substrate.
as §3

Experiment [6] relates to HIV variant G140S Q148H integrase. Briefly: Phenosense (PhenoScreen) assay, G140S Q148H variant. The class given is cell-based. The settings on record: Human immunodeficiency virus 1, read-out: Phenosense assay G140S Q148H activity value.
Description: as §1, §2, §3

For experiment [7], the system named is HIV variant T661 S153Y integrase. Briefly: Phenosense (PhenoScreen) assay, T661 S153Y variant. In kind it is cell-based. The settings on record: Human immunodeficiency virus 1, read-out: Phenosense assay T661 S153Y activity value.
Description: as §1, §2, §3

Experiment [8] concerns the target T2, HIV integrase E92Q/N155H (Human immunodeficiency virus type 1 group M subtype B, UniProt P12497, E1239Q/N1302H).
T2 construct: The integrase coding region was then subject to PCR and cloned into a bacterial expression vector; made in house
Briefly: Strand transfer assay (enzyme assay), E92Q/N155H mutant. The class given is biochemical, HIV-1.
Description: as §4, §5, §3

Experiment [9] deals with T3, HIV integrase G140S/Q148H (Human immunodeficiency virus type 1 group M subtype B, UniProt P12497, G1287S/Q1295H).
T3 construct: The integrase coding region was then subject to PCR and cloned into a bacterial expression vector; made in house
The experiment is described as follows: Strand transfer assay (enzyme assay), G140S/Q148H mutant. The class given is biochemical, HIV-1.
Description: as §4, §5, §3

The test system of experiment [10] is HIV-1 reporter virus, wild-type (WT) integrase. The experiment is described as follows: Luciferase reporter virus infectivity assay, WT. The class given is cell-based. The settings on record: Human immunodeficiency virus 1, HEK-293T, 48 h, read-out: Luciferase assay results WT (EC50). The text has this: (§6) Infectivity assays using reporter viruses derived from lentiviral vectors capable of a single round of infection were used to determine the activity (EC50) of compounds. The DNA used to generate viruses for infection was the full-length HIV-1 genome which had been envelope-deleted. In addition, a reporter gene (the firefly luciferase gene from Photinus pyralis) was cloned into the nef region of the HIV backbone for ease of assay readout. […]. Culture supernatants containing VSV-G pseudotyped virions were harvested 64 h post transfection, clarified by centrifugation to remove cell debris, and frozen at −70° C. until use.
(§7) HIV integrase was mutated within a shuttle vector (pGEM) containing the majority of the HIV-1 gag and pol sequence using site-directed mutagenesis to generate sequences that are known to confer resistance to published integrase inhibitors. These include but are not limited to mutations such as Q148H/G140S (in tables 2 and 3 # QHGS), N155H/E92Q (in table 2 # NHEQ), F121Y/T124K (in table 2 FYTK), Y143R (in table 2 # Y143R) and the triple mutant Q148K/G140A/E138A. (in table 2 # QKGAEA). The mutated integrase coding region within the shuttle vector was sequence verified, and then exchanged for the wild-type (WT) coding sequence in the reporter virus DNA backbone.
(§8) 293T cells were plated out at 12000 cells per well in CellView 96-well cell culture plates (Invitrogen) 16 h prior to compound addition. Compounds were preincubated with cells for 4 h at 37° C. prior to the addition of virus sufficient to generate approximately 10000 Luciferase light units (as measured by the Victor Wallace luminometer) upon assaying using the Bright-Glo™ reagent (Promega) according to the manufacturer's instructions at 48 h post infection.
(In general: Reporter assays use an easily measured gene product as a stand-in for the process of interest.)

Experiment [11] relates to HIV-1 reporter virus, integrase Q148H/G140S (QHGS). The experiment is described as follows: Luciferase reporter virus infectivity assay, QHGS mutant. In kind it is cell-based. The settings on record: Human immunodeficiency virus 1, HEK-293T.
Description: as §6, §7, §8

Experiment [12] has as its system HIV-1 reporter virus, integrase N155H/E92Q (NHEQ). The experiment is described as follows: Luciferase reporter virus infectivity assay, NHEQ mutant. The class given is cell-based. The settings on record: Human immunodeficiency virus 1, HEK-293T, read-out: Luciferase assay results NHEQ (EC50).
Description: as §6, §7, §8

The mark [13] stands for this setting: read-out: Luciferase assay results QHGS (EC50).
Where [14] appears, read: read-out: EC50 against the QHGS mutant.

Structures are written as SMILES. Like-named read-outs stand apart in the source and are kept apart here. Where only a bound is given, the exact number is not on record here.

The term IC50 denotes the concentration needed to halve the response being measured. In the case of `O=C(Cn1ccn2c(=O)c(O)c(-c3ncc(Cc4ccc(F)cc4)o3)nc12)N1CCCCC1`, the EC50 in experiment [1] was 100 to 1000 nM; in experiment [2] it was 100 to 1000 nM; in experiment [3], 100 to 1000 nM; in experiment [4], 1 to 100 nM; in experiment [6] it was 1000 to 10000 nM; in [7], 1 to 100 nM. In addition, in experiment [5], the concentration for half-maximal inhibition (IC50) was 1 to 100 nM.
For the compound `Cn1ccn2c(=O)c(O)c(-c3ncc(Cc4ccc(F)cc4)s3)nc12`, the IC50 was in the range of 100 to 1000 nM in experiment [8], 1 to 100 nM in experiment [5] and 1 to 100 nM in experiment [9].
As for `Cn1ccn2c(=O)c(O)c(-c3ncc(Cc4ccc(Cl)cc4)s3)nc12`, the concentration for half-maximal inhibition (IC50) lay within 100 to 1000 nM in experiment [8], 1 to 100 nM in experiment [5] and 100 to 1000 nM in [9].
With `Cn1ccn2c(=O)c(O)c(-c3ncc(Cc4ccc(Cl)c(Cl)c4)s3)nc12`, the 50% inhibitory concentration (IC50) in experiment [8] lay within 100 to 1000 nM; in [5], 1 to 100 nM; in experiment [9] it was 100 to 1000 nM.
With `Cn1ccn2c(=O)c(O)c(-c3ncc(Cc4ccc(F)c(Cl)c4)s3)nc12`, the IC50 in [8] lay in the range of 100 to 1000 nM; in experiment [5] it was 1 to 100 nM; in experiment [9] it was 100 to 1000 nM.
For `Cn1ccn2c(=O)c(O)c(C(=O)NCc3ccc(Cl)c(Cl)c3)nc12`, the EC50 in [1] was 1000 to 10000 nM; in [2] it was over 10000 nM; in experiment [3], 1 to 100 nM; in [4], 1 to 100 nM; in experiment [6] it was over 10000 nM; in experiment [7] it was 100 to 1000 nM. In addition, the IC50 in [5] was 100 to 1000 nM.
Take `Cn1ccn2c(=O)c(O)c(C(=O)NCc3ccc(F)cc3)nc12`: the EC50 in [1] is over 10000 nM; in experiment [2] it was over 10000 nM; in experiment [3] it was 100 to 1000 nM; in experiment [4], 100 to 1000 nM; in [6], over 10000 nM; in experiment [7], 1000 to 10000 nM. The half-inhibitory concentration (IC50) in experiment [5] was in the range of 100 to 1000 nM.
Turning to `C[C@H]1CN(C(=O)Cn2ccn3c(=O)c(O)c(-c4ncc(Cc5ccc(Cl)c(Cl)c5)s4)nc23)C[C@H](C)O1`, the results for the EC50 in [10] and in [11] (setting [13]) were 1 to 100 nM and 100 to 1000 nM, respectively.
On the same counts, the results for `O=C(Cn1ccn2c(=O)c(O)c(-c3ncc(Cc4ccc(F)cc4)s3)nc12)N1CCCCC1` are 1 to 100 nM and over 1000 nM.
As for `C[C@H]1CN(C(=O)Cn2ccn3c(=O)c(O)c(-c4ncc(Cc5ccc(F)c(Cl)c5)s4)nc23)C[C@H](C)O1`, the EC50 in [10], in [11] (setting [13]) and in experiment [12] was 100 to 1000 nM each time.
Regarding `CN1CCN(C(=O)Cn2ccn3c(=O)c(O)c(-c4ncc(Cc5ccc(F)cc5)s4)nc23)CC1`, the EC50 is 100 to 1000 nM in experiment [10], over 1000 nM in experiment [11] (setting [13]) and 100 to 1000 nM in experiment [12].
Consider `CSCc1cn(CC(=O)N2CC(C)CC(C)C2)c2nc(C(=O)NCc3ccc(Cl)c(Cl)c3)c(O)c(=O)n12` (centres unmarked) [Example 191, 1-[2-(3,5-Dimethyl-piperidin-1-yl)-2-oxo-ethyl]-6-hydroxy-3-methylsulfanylmethyl-5-oxo-1,5-dihydro-imidazo[1,2-a]pyrimidine-7-carboxylic acid 3,4-dichloro-benzylamide], for which, in [11] (setting [14]), the EC50 was 1000 to 10000 nM.
In the case of `CSCc1cn(CC(=O)N2CC(C)CC(C)C2)c2nc(C(=O)NCc3ccc(F)cc3S(=O)(=O)N(C)C)c(O)c(=O)n12` (centres unmarked) [Example 192, 1-[2-(3,5-Dimethyl-piperidin-1-yl)-2-oxo-ethyl]-6-hydroxy-3-methylsulfanylmethyl-5-oxo-1,5-dihydro-imidazo[1,2-a]pyrimidine-7-carboxylic acid 2-dimethylsulfamoyl-4-fluoro-benzylamide], the EC50 in [11] (setting [14]) is under 500 nM.
On to `CC1CC(C)CN(C(=O)Cn2cc(CS(C)(=O)=O)n3c(=O)c(O)c(C(=O)NCc4ccc(Cl)c(Cl)c4)nc23)C1` (centres unmarked) [Example 193, 1-[2-(3,5-Dimethyl-piperidin-1-yl)-2-oxo-ethyl]-6-hydroxy-3-methanesulfonylmethyl-5-oxo-1,5-dihydro-imidazo[1,2-a]pyrimidine-7-carboxylic acid 3,4-dichloro-benzylamide], for which, in [11] (setting [14]), the EC50 is under 500 nM.
Take `CC1CC(C)CN(C(=O)Cn2cc(CS(C)(=O)=O)n3c(=O)c(O)c(C(=O)NCc4ccc(F)cc4S(=O)(=O)N(C)C)nc23)C1` (centres unmarked) [Example 194, 1-[2-(3,5-Dimethyl-piperidin-1-yl)-2-oxo-ethyl]-6-hydroxy-3-methanesulfonylmethyl-5-oxo-1,5-dihydro-imidazo[1,2-a]pyrimidine-7-carboxylic acid 2-dimethylsulfamoyl-4-fluoro-benzylamide]: the EC50 in experiment [11] (setting [14]) is under 500 nM.
Consider `C[C@H]1CN(C(=O)Cn2ccn3c(=O)c(O)c(-c4ncc(Cc5ccc(F)cc5)s4)nc23)C[C@H](C)O1` [drawing 254], for which the EC50 in experiment [10] lay in the range of 1 to 100 nM; in experiment [11] (setting [13]) it was 100 to 1000 nM; in experiment [12], 100 to 1000 nM.
